pIC50: −log10 of the molar value. Activity calls are given as the source filed them. The calls are words filed in the database; no cut-off is given here.
Experiments:
Assay type in all cases: functional, cell-based
MDA-MB-435 = assay: Cytotoxicity against human MDA-MB-435 cells assessed as inhibition of cell proliferation measured after 72 hrs by CellTiter 96 AQueous One Solution Cell Proliferation assay; details: for pIC50: MDA-MB-435, 72 h
MDA-MB-231 = assay: Cytotoxicity against human MDA-MB-231 cells assessed as inhibition of cell proliferation measured after 72 hrs by CellTiter 96 AQueous One Solution Cell Proliferation assay; details: for pIC50: MDA-MB-231, 72 h
OVCAR-3 = assay: Cytotoxicity against human OVCAR-3 cells assessed as inhibition of cell proliferation measured after 72 hrs by CellTiter 96 AQueous One Solution Cell Proliferation assay; details: for pIC50: OVCAR-3, 72 h
A2780 = assay: Cytotoxicity against human A2780 cells assessed as reduction in cell viability incubated for 72 hrs by MTT assay; details: A2780, 72 h
HL-60 = assay: Cytotoxicity against human HL-60 cells assessed as reduction in cell viability incubated for 72 hrs by MTT assay; details: HL-60, 72 h
PC-3 = assay: Cytotoxicity against human PC-3 cells assessed as reduction in cell viability incubated for 72 hrs by MTT assay; details: PC-3, 72 h
HepG2 = assay: Cytotoxicity against human HepG2 cells assessed as reduction in cell viability incubated for 72 hrs by MTT assay; details: HepG2, 72 h
SF-295 = assay: Cytotoxicity against human SF-295 cells assessed as reduction in cell viability incubated for 72 hrs by MTT assay; details: SF-295, 72 h
HCT-116 = assay: Cytotoxicity against human HCT-116 cells assessed as reduction in cell viability incubated for 72 hrs by MTT assay; details: HCT-116, 72 h
HT-29 = assay: Cytotoxicity against human HT-29 cells measured after 72 hrs by CellTiter 96 AQueous One Solution Cell Proliferation assay; details: HT-29, 72 h

| SMILES | pIC50 (MDA-MB-435) | pIC50 (MDA-MB-231) | pIC50 (OVCAR-3) | Activity (MDA-MB-435) | Activity (MDA-MB-231) | Activity (OVCAR-3) | pIC50 (A2780) | other results |
| --- | --- | --- | --- | --- | --- | --- | --- | --- |
| CO[C@@]12OC[C@@H](O)[C@]1(C)CC[C@@H]1C2=C[C@H]2OC(=O)[C@]3(C)[C@H]2[C@]12CC[C@@]3(O)OC2 | 5.44 | 5.40 | 5.20 |  |  |  |  |  |
| COc1cc2c(c3occc13)C[C@@H](O)[C@@H]1[C@]23CC[C@@H](O[C@@H]2O[C@H](CO)[C@@H](O)[C@H](O)[C@H]2O)[C@@]1(C)C(=O)OC3 |  |  |  | inactive | inactive | inactive |  |  |
| C[C@@]1(C(=O)CO)CC[C@@H]2C(=C[C@H]3OC(=O)[C@]4(C)[C@H]3[C@]23CC[C@@]4(O)OC3)C1 | 5.64 | 5.57 | 5.36 |  |  |  | 5.41 | pIC50 (HL-60): 5.68; pIC50 (PC-3): 5.44; pIC50 (HepG2): 5.24; pIC50 (SF-295): 5.66; pIC50 (HCT-116): 5.77 |
| C[C@@]12CC[C@@H]3C(=C[C@H]4OC(=O)[C@]5(C)[C@H]4[C@]34CC[C@@]5(O)OC4)[C@]1(O)OC[C@H]2O | 5.55 | 5.47 | 5.25 |  |  |  | 5.77 | pIC50 (HT-29): 5.38 |
| COc1cc2c(c3occc13)C[C@H]1OC(=O)[C@]3(C)[C@H]1[C@@]21CO[C@]3(O)[C@@H](O[C@@H]2O[C@H](CO)[C@@H](O)[C@H](O)[C@H]2O)C1 |  |  |  | inactive | inactive | inactive |  |  |
| C[C@@]1([C@H](O)CO)CC[C@@H]2C(=C[C@H]3OC(=O)[C@@]4(C)CCC[C@@]2(C)[C@@H]34)C1 |  |  |  | inactive | inactive | inactive |  |  |

From ChEMBL document CHEMBL4842309, “(9βH)- and 17-Nor-Pimaranes from Icacina oliviformis” (J Nat Prod, 2021)
